# Source: US9956228B2, “Method of treating acute myeloid leukemia and/or acute lymphoblastic leukemia using thienotriazolodiazepine compounds” (ONCOETHIX GMBH, priority 2014, dated 2018)
# How the values were obtained:
# HL60, U937 and Jurkat = test: MTT assay after 72 hours, sensitive cell lines; format: cell-based; details: Homo sapiens, 72 h exposure
# Description: (§1) Protein was analyzed by Western blot and qRT-PCR was performed with Fast SYBR Green on a StepOnePlus Real-Time PCR System. […] Combination Index (CI) was determined using Chou & Talalay analysis; CI<1 reflects synergy, CI=1 additivity and CI>1 reflects antagonism.
# (§2) Four established human cell lines derived from acute (HL60, U937) or chronic (K562) myeloid leukemia cells, and acute lymphoblastic leukemia cells (Jurkat) were treated with increasing doses of compound (1-1). MTT assays were performed after 72 hours exposure. GI50 and Emax values were calculated with the equation for sigmoidal dose response using Prism 5.00 and cell lines were classified as sensitive or resistant.
# (§3) Five established human cell lines from acute and chronic acute myeloid leukemia (HL-60, U937, K562) and acute lymphoblastic leukemia (Jurkat, MOLT-3) were used. […] At each time point, compound 1-1 extracellular and intracellular concentrations were analyzed in cell supernatant and pellets respectively, using an Ultra Performance Liquid Chromatography with tandem Mass Spectrometry (concentration range 1-250 ng/mL). […] In addition, in cell pellets protein modulation was analyzed by Western blot using commercial antibodies and qRT-PCR was performed using Fast SYBR Green on a StepOnePlus RT-PCR System.
# [1] = test system: other cell lines (K-562, NALM-1, CCRF-CEM, MOLT-3/-4); test: MTT assay after 72 hours, other cell lines; format: cell-based; details: Homo sapiens, 72 h exposure
# Description: as §1, §2, §3
# [2] = test system: HL-60, U937, K562, Jurkat, MOLT-3; test: cellular PK: extracellular and intracellular concentrations by UPLC-MS/MS; format: in vitro ADME, human; details: 500 nM
# Description: (§4) Five established human cell lines from acute and chronic acute myeloid leukemia (HL-60, U937, K562) and acute lymphoblastic leukemia (Jurkat, MOLT-3) were used. […] For cellular PK studies, cells were seeded at 2·10^6 cells/ml and exposed to 500 nM compound 1-1 for 0, 5, 15, 30, 60, 120 and 360 minutes. At each time point, compound 1-1 extracellular and intracellular concentrations were analyzed in cell supernatant and pellets respectively, using an Ultra Performance Liquid Chromatography with tandem Mass Spectrometry (concentration range 1-250 ng/mL). Experiments were performed in quadruplicate. In addition, in cell pellets protein modulation was analyzed by Western blot using commercial antibodies and qRT-PCR was performed using Fast SYBR Green on a StepOnePlus RT-PCR System.
# CMYC [3] = test: CMYC modulation (Western blot, qRT-PCR) in resistant cell line K562; format: cell-based, human; details: K562, 500 nM
# Description: as §4
# CMYC [4] = test: CMYC modulation (Western blot, qRT-PCR) in sensitive cell lines HL60 and Jurkat; format: cell-based, human; details: 500 nM
# Description: as §4
# [5] = phase Ib dose-finding study, population pharmacokinetics; format: in vivo, human
# Description: An oncology phase Ib trial of compound (1-1) was conducted by the inventors with the primary objective of investigating escalation of the dose of compound (1-1) administered to patients with acute leukemia or other hematologic malignancies. The study enrolled patients with acute leukemia or other hematologic malignancies. The patients received several active dose levels of compound (1-1) ranging from 10 mg to 160 mg according to different dosing schedules. Blood samples from 7 time points were collected from each patient over 24 hours post-administration on Day 1 for leukemia patients (“complete PK”) and 4 blood samples were collected from each patient over 8 hours post-administration for patients with other hematologic malignancies (“limited PK”). compound (1-1) plasma concentrations were measured on the basis of the blood samples using validated ultra performance liquid chromatography with tandem mass spectrometry detection with a concentration range 1-250 ng/mL. Analyses and population pharmacokinetics (PPK) modeling were performed with the nonlinear mixed effect modeling software program Monolix version 4.3. Pharmacokinetic Parameters, including absorption constant (Ka); apparent distribution volume (V/F), apparent clearance (CL/F) and lean body mass (LBM; calculated calculated considering patient sex, weight and height) were calculated.
# 85 patients enrolled in the phase Ib trial of compound (1-1) and were treated from January 2013 to August 2014. The patients were randomized to […]: 10 mg, 20 mg, 40 mg, 80 mg, 120 mg and 160 mg once a day dosing (QD); and 40 mg twice a day dosing (BID). Among them, 81 patients with 630 plasma concentrations (607+23 BLQ) were evaluable for PK assessment. A 1-compartment open model adequately described the total compound (1-1) concentration-time curve. […] In the PPK study, the best simulation model was obtained when LBM was considered in the analysis. A correlation between CL/F and V/F was also observed for compound (1-1).
# HDAC8 = target: T1, HDAC8 (Homo sapiens, UniProt Q9BY41); details: cited from earlier work
# T1 sequence (Q9BY41 1-377): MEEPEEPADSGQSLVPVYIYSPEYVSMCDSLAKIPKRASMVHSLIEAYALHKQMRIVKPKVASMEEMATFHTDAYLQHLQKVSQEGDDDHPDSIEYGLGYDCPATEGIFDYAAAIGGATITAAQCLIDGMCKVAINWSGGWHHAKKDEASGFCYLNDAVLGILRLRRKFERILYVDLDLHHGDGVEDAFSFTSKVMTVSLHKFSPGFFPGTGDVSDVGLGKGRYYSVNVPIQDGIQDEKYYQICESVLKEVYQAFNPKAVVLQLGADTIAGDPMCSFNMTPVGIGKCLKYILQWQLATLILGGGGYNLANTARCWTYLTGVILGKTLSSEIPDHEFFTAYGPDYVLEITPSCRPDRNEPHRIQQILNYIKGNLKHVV
# [6] = sensitive and resistant leukemic cell lines
# [7] = patients, PPK 1-compartment model
"GI50 (HL60, U937 and Jurkat) [nM]",GI50 [1] [nM],"intracellular concentration, mean [2, 6] [ng/106 cells]","intracellular concentration, range [2, 6]","time to cellular uptake [2, 6] [min]",extracellular levels ([2]; stable up to 6 h of incubation) [ng/mL],"half-life ([5]; human, plasma, oral, all patients, read-out: mean elimination half-life (converted)) [h]","Tmax ([5]; human, plasma, oral, patients) [h]","absorption constant Ka ([5]; patients, 10-160 mg oral, PPK 1-compartment model) [h⁻¹]","apparent clearance CL/F [5, 7] [L/h]","apparent distribution volume V/F [5, 7] [L]",Compound,exposure time after which CMYC mRNA levels downregulation was observed (CMYC [3]) [h],CMYC protein and mRNA levels (CMYC [4]),IC50 (HDAC8) [nM]
230 to 384,≥ 6000,~15,3-23 ng·mL-1/106 cells,< 5,~200,5.8,1 to 4,0.74,8.45,71.7,"Cc1sc2c(c1C)C(c1ccc(Cl)cc1)=N[C@@H](CC(=O)Nc1ccc(O)cc1)c1nnc(C)n1-2 [Compound (1-1), 2-[(6S)-4-(4-chlorophenyl)-2,3,9-trimethyl-6H-thienol[3,2-f]-[1,2,4]triazolo[4,3-a][1,4]diazepin-6-yl]-N-(4-hydroxyphenyl)acetamide dihydrate]",2,rapid downregulation,
,,,,,,,,,,,"Cc1cc(Cl)ccc1OCCCC(=O)NO [Droxinostat, 4-(4-Chloro-2-methylphenoxy)-N-hydroxybutanamide]",,,1460
